US8344008B2 (Janssen Pharmaceutica NV, priority 2007, dated 2013)
Where a name gives a salt, the structure may show the parent alone.

Molecular target: T1, recombinant human LTA4 hydrolase (rhLTA4H) (Homo sapiens, UniProt P09960)
T1 construct: made in house; host or cells: Spodoptera frugiperda (Sf-9) cells, baculovirus (pFastBac1)
T1 sequence (P09960 1-611): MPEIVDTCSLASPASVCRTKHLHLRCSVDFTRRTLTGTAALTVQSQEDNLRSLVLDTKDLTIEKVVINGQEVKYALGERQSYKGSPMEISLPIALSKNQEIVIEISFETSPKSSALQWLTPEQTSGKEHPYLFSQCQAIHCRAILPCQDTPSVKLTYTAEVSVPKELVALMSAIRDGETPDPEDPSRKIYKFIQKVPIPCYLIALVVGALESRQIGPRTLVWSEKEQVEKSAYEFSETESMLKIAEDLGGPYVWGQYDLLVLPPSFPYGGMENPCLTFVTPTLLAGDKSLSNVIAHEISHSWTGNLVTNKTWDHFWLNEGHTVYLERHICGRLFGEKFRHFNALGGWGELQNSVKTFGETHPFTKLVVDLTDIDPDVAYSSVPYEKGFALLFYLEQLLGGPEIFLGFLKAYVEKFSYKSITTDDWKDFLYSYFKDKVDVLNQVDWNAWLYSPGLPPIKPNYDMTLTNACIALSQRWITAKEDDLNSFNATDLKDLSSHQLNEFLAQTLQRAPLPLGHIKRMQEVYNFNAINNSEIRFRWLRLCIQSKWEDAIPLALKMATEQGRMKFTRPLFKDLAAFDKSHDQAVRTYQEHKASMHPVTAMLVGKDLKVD
Experiment: Recombinant Human LTA4 Hydrolase Assay for LTA4 Hydrolase Inhibitor Activity
Type: biochemical
Conditions: average of results obtained; LTB4 quantified by enzyme-linked immunoassay
How it was run: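 Baculovirus/Sf-9-expressed human LTA4 hydrolase (36 ng) preincubated with compound 10 min at rt in 0.1 M potassium phosphate pH 7.4, 5 mg/mL fatty-acid-free BSA. Reaction started with 9 ng LTA4 free acid, run 10 min at rt; LTB4 measured by enzyme immunoassay, IC50 from 4-parameter fit.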

Ki | SMILES
0.064 µM | O=C(c1ccc[nH]1)N1C[C@@H]2C[C@H]1CN2CCOc1ccc(Oc2nc3ccccc3s2)cc1 [Example 65, (S,S)-(5-{2-[4-(Benzothiazol-2-yloxy)-phenoxy]-ethyl}-2,5-diaza-bicyclo[2.2.1]hept-2-yl)-(1H-pyrrol-2-yl)-methanone]
0.006 µM | CC(=O)N1C[C@@H]2C[C@H]1CN2Cc1ccc(Oc2nc3c(F)cccc3s2)cc1 [Example 207, (S,S)-1-{5-[4-(4-Fluoro-benzothiazol-2-yloxy)-benzyl]-2,5-diaza-bicyclo[2.2.1]hept-2-yl}-ethanone]
0.008 µM | CC(C)(O)C(=O)N1C[C@@H]2C[C@H]1CN2CCOc1ccc(Oc2nc3ccccc3s2)cc1 [Example 25, (S,S)-1-(5-{2-[4-(Benzothiazol-2-yloxy)-phenoxy]-ethyl}-2,5-diaza-bicyclo[2.2.1]hept-2-yl)-2-hydroxy-2-methyl-propan-1-one]
0.036 µM | O=C(c1ccc[nH]1)N1C[C@@H]2C[C@H]1CN2Cc1ccc(Oc2nc3ccccc3s2)cc1 [Example 62, (S,S)-{5-[4-(Benzothiazol-2-yloxy)-benzyl]-2,5-diaza-bicyclo[2.2.1]hept-2-yl}-(1H-pyrrol-2-yl)-methanone]
0.001 µM | O=C(N1C[C@@H]2C[C@H]1CN2CCOc1ccc(Oc2nc3ccccc3s2)cc1)C1(O)CC1 [Example 27, (S,S)-(5-{2-[4-(Benzothiazol-2-yloxy)-phenoxy]-ethyl}-2,5-diaza-bicyclo[2.2.1]hept-2-yl)-(1-hydroxy-cyclopropyl)-methanone]
0.145 µM | CS(=O)(=O)N1C[C@H]2C[C@@H]1CN2Cc1ccc(Oc2nc3ccc(F)cc3s2)cc1 [Example 201, (R,R)-6-Fluoro-2-[4-(5-methanesulfonyl-2,5-diaza-bicyclo[2.2.1]hept-2-ylmethyl)-phenoxy]-benzothiazole]
0.027 µM | O=C(c1cccs1)N1C[C@@H]2C[C@H]1CN2Cc1ccc(Oc2nc3ccccc3s2)cc1 [Example 61, (S,S)-{5-[4-(Benzothiazol-2-yloxy)-benzyl]-2,5-diaza-bicyclo[2.2.1]hept-2-yl}-thiophen-2-yl-methanone]
0.023 µM | CC(=O)N1C[C@H]2C[C@@H]1CN2CCc1ccc(Oc2nc3cc(F)ccc3s2)cc1 [Example 235, (R,R)-1-(5-{2-[4-(5-Fluoro-benzothiazol-2-yloxy)-phenyl]-ethyl}-2,5-diaza-bicyclo[2.2.1]hept-2-yl)-ethanone]
0.016 µM | NC(=O)N[C@H]1C[C@H]2CC[C@@H](C1)N2CCc1ccc(Oc2nc3cccc(F)c3s2)cc1 [Example 190, meso-endo-(8-{2-[4-(7-Fluoro-benzothiazol-2-yloxy)-phenyl]-ethyl}-8-aza-bicyclo[3.2.1]oct-3-yl)-urea]
0.206 µM | CC(=O)N1C[C@@H]2C[C@H]1CN2CCc1cccc(Oc2nc3ccccc3s2)c1 [Example 8, (S,S)-1-(5-{2-[3-(Benzothiazol-2-yloxy)-phenyl]-ethyl}-2,5-diaza-bicyclo[2.2.1]hept-2-yl)-ethanone]

Further lines, the compound ahead of its results:

SMILES | Ki
O=C(c1ccco1)N1CC2CN(Cc3ccc(Oc4nc5ccccc5s4)cc3)CC2C1 (stereo not shown) [Example 106, {5-[4-(Benzothiazol-2-yloxy)-benzyl]-hexahydro-pyrrolo[3,4-c]pyrrol-2-yl}-furan-2-yl-methanone] | 0.003 µM
CS(=O)(=O)N[C@@H]1C[C@H]2CC[C@@H](C1)N2CCc1ccc(Oc2nc3c(Cl)cccc3s2)cc1 [Example 162, meso-exo-N-(8-{2-[4-(4-Chloro-benzothiazol-2-yloxy)-phenyl]-ethyl}-8-aza-bicyclo[3.2.1]oct-3-yl)-methanesulfonamide] | 0.188 µM
Cc1ccc2nc(Oc3ccc(CN4CC5CN(C(N)=O)CC5C4)cc3)sc2c1 (stereo not shown) [Example 145, 5-[4-(6-Methyl-benzothiazol-2-yloxy)-benzyl]-hexahydro-pyrrolo[3,4-c]pyrrole-2-carboxylic acid amide] | 0.597 µM
NCC(=O)N1CCC2CN(Cc3ccc(Oc4nc5ccccc5s4)cc3)CC21 (stereo not shown) [Example 95, 2-Amino-1-{5-[4-(benzothiazol-2-yloxy)-benzyl]-hexahydro-pyrrolo[3,4-b]pyrrol-1-yl}-ethanone] | 0.036 µM
CC(=O)N[C@H]1C[C@H]2CC[C@@H](C1)N2Cc1ccc(Cc2nc3ccccc3s2)cc1 [Example 5, meso-endo-N-[8-(4-Benzothiazol-2-ylmethyl-benzyl)-8-aza-bicyclo[3.2.1]oct-3-yl]-acetamide] | 0.035 µM
CS(=O)(=O)N1[C@@H]2CC[C@H]1C[C@@H](NCCOc1ccc(Oc3nc4c(Cl)cccc4s3)cc1)C2 [Example 194, meso-endo-{2-[4-(4-Chloro-benzothiazol-2-yloxy)-phenoxy]-ethyl}-(8-methanesulfonyl-8-aza-bicyclo[3.2.1]oct-3-yl)-amine] | 3.14 µM
CC(C)(O)C(=O)N1C2CCC1CN(Cc1ccc(Oc3nc4ccccc4s3)cc1)C2 [Example 53, meso-1-{3-[4-(Benzothiazol-2-yloxy)-benzyl]-3,8-diaza-bicyclo[3.2.1]oct-8-yl}-2-hydroxy-2-methyl-propan-1-one] | 0.117 µM
NC(=O)N1[C@@H]2CC[C@H]1C[C@H](NCCOc1ccc(Oc3nc4ccc(F)cc4s3)cc1)C2 [Example 267, meso-exo-3-{2-[4.(6-Fluoro-benzothiazol-2-yloxy)-phenoxy]-ethylamino}-8-aza-bicyclo[3.2.1]octane-8-carboxylic acid amide] | 0.296 µM
CS(=O)(=O)N1C[C@H]2C[C@@H]1CN2CCOc1ccc(Oc2nc3c(Cl)cccc3s2)cc1 [Example 203, (R,R)-4-Chloro-2-{4-[2-(5-methanesulfonyl-2,5-diaza-bicyclo[2.2.1]hept-2-yl)-ethoxy]-phenoxy}-benzothiazole] | 0.293 µM
NCC(=O)N[C@H]1C[C@H]2CC[C@@H](C1)N2Cc1ccc(Oc2nc3ccccc3s2)cc1 [Example 56, meso-endo-2-Amino-N-{8-[4-(benzothiazol-2-yloxy)-benzyl]-8-aza-bicyclo[3.2.1]oct-3-yl}-acetamide] | 0.03 µM
NC(=O)N1CC2CN(Cc3ccc(Oc4nc5ccccc5s4)cc3F)CC2C1 (stereo not shown) [Example 159, 5-[4-(Benzothiazol-2-yloxy)-2-fluoro-benzyl]-hexahydro-pyrrolo[3,4-c]pyrrole-2-carboxylic acid amide] | 0.11 µM
CS(=O)(=O)N1CC2CCC(C1)N2CCOc1ccc(Oc2nc3ccc(Cl)cc3s2)cc1 [Example 169, meso-6-Chloro-2-{4-[2-(3-methanesulfonyl-3,8-diaza-bicyclo[3.2.1]oct-8-yl)-ethoxy]-phenoxy}-benzothiazole] | 0.693 µM
NC(=O)N1CC2CCN(Cc3ccc(Oc4nc5ccccc5s4)cc3)CC2C1 (single isomer, unassigned; (+)) [Example 142A, (+)-5-[4-(Benzothiazol-2-yloxy)-benzyl]-octahydro-pyrrolo[3,4-c]pyridine-2-carboxylic acid amide] | 0.053 µM
CC(=O)N1CCC2CN(Cc3ccc(Oc4nc5ccccc5s4)cc3)CC2C1 (stereo not shown) [Example 89, 1-{2-[4-(Benzothiazol-2-yloxy)-benzyl]-octahydro-pyrrolo[3,4-c]pyridin-5-yl}-ethanone] | 0.006 µM
c1ccc2sc(Oc3ccc(CN4CC5CCNC5C4)cc3)nc2c1 (stereo not shown) [Example 81, 2-[4-(Hexahydro-pyrrolo[3,4-b]pyrrol-5-ylmethyl)-phenoxy]-benzothiazole hydrochloride] | 0.162 µM
